This note sets out measurements from publication PMC1968247 (British Journal of Cancer, 1993).

In general, MTD refers to the highest dose tested that stayed within the study's limit of toxicity.

Read-outs that look alike come from different tables or passages of the source.

A short description of data set [1]: Maximum tolerated dose, full dose range to the point of toxicity. The note with it: NMRI, mouse, in vivo, ip. The method, then:
Br. J. Cancer (1993), 67, 441 446 t? […] Bibby Clinical Oncology Unit, University of Bradford, West Yorkshire, BD7 JDP, UK. […] In vivo anti-tumour activity was examined against three transplantable adenocarcinomas of the mouse colon and in vivo bone marrow toxicity was assessed using a spleen colony forming unit assay. The pharmacokinetic behaviour of the drug in vivo and drug stability in vitro was analysed by gas chromatography with electron capture detection. […] Clinical responses to cytotoxic agents have been largely restricted to the haematological malignancies while the majority of human solid tumours have remained refractory to chemotherapy (Marsoni et al., 1987). […] However, their clinical usefulness has been limited by non-selective host toxicity, particularly myelosuppres- sion. The chloroethylnitrosoureas decompose spontaneously in aqueous solution to generate reactive intermediates that are capable of alkylating and carbamoylating nucleophilic targets (Cheng et al., 1972). Alkylation reactions consist of chloroethylations and hydroxyethylations of DNA (Tong et al., 1982). Chloroethylation of 06-guanine with subsequent cross-link formation is considered to be the most important cytotoxic reaction (Lown et al., 1978) while hydroxyethyla- tion reactions are thought to be responsible for their mutagenic and carcinogenic effects (Pelfrene et al., 1976; Swenson et al., 1979). […] The assessment of stem cell survival has been recommended to study irreversible cytotoxic bone marrow injury (Schofield, 1986) and this can be performed readily in mice using a spleen colony forming unit assay. […] In vitro activity was assessed against a panel of established murine and human tumour cell lines while in vivo anti-tumour responses were evaluated against an ascitic tumour, MAC 15A, and two solid subcutaneous (sc) tumours, MAC 13 and MAC 26. […] Chemosensitivity testing In vitro chemosensitivity was assessed using a modified micro-tetrazolium (MTT) assay (Twenty- man & Luscombe, 1987).

The next data set has as its system bone marrow. To be noted: 24 h. Here is the method: (§1) Br. J. Cancer (1993), 67, 441 446 t? […] Bibby Clinical Oncology Unit, University of Bradford, West Yorkshire, BD7 JDP, UK. […] In vivo anti-tumour activity was examined against three transplantable adenocarcinomas of the mouse colon and in vivo bone marrow toxicity was assessed using a spleen colony forming unit assay. The pharmacokinetic behaviour of the drug in vivo and drug stability in vitro was analysed by gas chromatography with electron capture detection. […] Clinical responses to cytotoxic agents have been largely restricted to the haematological malignancies while the majority of human solid tumours have remained refractory to chemotherapy (Marsoni et al., 1987). […] However, their clinical usefulness has been limited by non-selective host toxicity, particularly myelosuppres- sion. The chloroethylnitrosoureas decompose spontaneously in aqueous solution to generate reactive intermediates that are capable of alkylating and carbamoylating nucleophilic targets (Cheng et al., 1972). Alkylation reactions consist of chloroethylations and hydroxyethylations of DNA (Tong et al., 1982). Chloroethylation of 06-guanine with subsequent cross-link formation is considered to be the most important cytotoxic reaction (Lown et al., 1978) while hydroxyethyla- tion reactions are thought to be responsible for their mutagenic and carcinogenic effects (Pelfrene et al., 1976; Swenson et al., 1979). […] In the search for other types of compound that would chloroethylate DNA, a series of 2-haloethylsulphonates was synthesised (Shealy et al., 1983). […] Recently, the NCI has introduced a new disease-orientated screening programme based on the assessment of the in vitro cytotoxicity of a panel of cell lines representing the common clinical forms of human cancers using a colorimetric assay (Boyd, 1989). […] One reason for this discrepancy is that the in vitro tests ignore the potential role played by the pharmacokinetic behaviour and bioavailability of a drug in determining tumour responses in vivo. […] It has been used extensively as part of the pre-clinical evaluation of new anti-cancer agents within the Screening and Pharmacology Group of the EORTC (Bibby et al., 1988b). The feasibility of performing minimal toxicity studies in conjunction with anti-tumour studies has been described (Bibby et al., 1988b). […] Correspondence: A.M. Matthew. Received 6 December 1991; and in revised form 13 October 1992. Br. J. Cancer (1993), 67, 441-446 '?" Macmillan Press Ltd., 1993 442 A.M. MATIHEW et al. ethylating agents with improved therapeutic indices. The assessment of stem cell survival has been recommended to study irreversible cytotoxic bone marrow injury (Schofield, 1986) and this can be performed readily in mice using a spleen colony forming unit assay. […] In vitro activity was assessed against a panel of established murine and human tumour cell lines while in vivo anti-tumour responses were evaluated against an ascitic tumour, MAC 15A, and two solid subcutaneous (sc) tumours, MAC 13 and MAC 26. MAC 13 is relatively nitrosourea-sensitive due to a low level of the repair enzyme 06-alkylguanine-DNA alkyltransferase while MAC 26 is relatively nitrosourea-resistant due to a high repair enzyme level (Lunn et al., 1989). In vivo bone marrow toxicity and pharmacokinetic studies and in vitro drug stability studies were performed in conjunction with the anti-tumour studies. […] Chlorozotocin was dissolved in 10% dimethylsulphoxide (DMSO)/arachis oil. Drug solutions were prepared at an appropriate concentration for the desired in vivo dose to be administered in 0.1 ml per 10 g body weight by intra- peritoneal (ip) or intravenous (iv) injection and for the desired final concentration in vitro to be achieved upon a 1 in 10 dilution. […] Chemosensitivity testing In vitro chemosensitivity was assessed using a modified micro-tetrazolium (MTT) assay (Twenty- man & Luscombe, 1987).

In a further data set the test system is MAC 26 tumours. The note with it: for Tumour growth delay: MAC 26; for Survivors: MAC 26 bearers. The method, then: as §1
The test system of another data set is MAC 15A ascites tumour. Kind of data set: Anti-tumour activity against MAC 15A (median survival time). The class given is in vivo, NMRI mice. To be noted: 60 mg kg-1 ip. Here is the method: as §1
The test system of another data set is MAC 13 tumours. Kind of data set: Anti-tumour activity against MAC 13 (tumour weight). The class given is in vivo, NMRI mice. To be noted: 60 mg kg-1 ip. The method, then: as §1

Compound `O=NN(CCCl)C(=O)N[C@H]1C(O)O[C@H](CO)[C@@H](O)[C@@H]1O` (stereo partly drawn) [Chlorozotocin, reference compound] had an MTD in data set [1] of 60 mg/kg. Further, the Survival fraction in the data set on bone marrow (15 mg kg-1 ip) is on record as 0.86; in the data set with bone marrow (30 mg kg-1 ip) it was 0.80. The Tumour growth delay is on record as 0 days in the data set on MAC 26 tumours (60 mg kg-1 ip) and “Toxic” in the data set on MAC 26 tumours (80 mg kg-1 ip). Also, the Survivors with MAC 26 tumours (60 mg kg-1 ip) is given as 9/9; with MAC 26 tumours (80 mg kg-1 ip) it was 3/9. Also, the T/C% in the data set on MAC 15A ascites tumour came to 288%. Besides, the “% Tumour weight inhibition” value with MAC 13 tumours was 59.2%.
